In experiment [1] the test system is T1, benzoquinone reductase (BQR), Pospl1|124517.
T1 construct: synthetic CDS in pEU-E01-MCS, wheat germ cell-free expression, crude translation mixture (sample S2), predicted 25 kDa, intracellular, no tag stated
As to the kind of experiment: NADPH consumption during […],6-DMBQ reduction. The class given is cell-based, Rhodonia placenta. The following applies: 30–570 µM 2,6-DMBQ; NADPH co-substrate; FMN cofactor; crude cell-free mixture.

Experiment [2] relates to T2, heme-thiolate peroxidase (HTP), Pospl1|61079.
T2 construct: synthetic CDS in pEU-E01-MCS, wheat germ cell-free expression with nanodiscs and hemin (S1b), crude mixture, predicted 32 kDa
In words: ABTS oxidation with H2O2. The experiment is classed as cell-based, Rhodonia placenta. The following applies: 50–900 µM ABTS; H2O2 as oxidant; crude cell-free mixture with hemin and nanodiscs. On the procedure: ABTS oxidation with H2O2 on heme-thiolate peroxidase (HTP), Pospl1|61079 | Km and Vmax values for enzymes HTP, ABF, BQR, and FRD were determined

Usually Km stands for the concentration of substrate that gives half-maximal velocity. `COC1=CC(=O)C=C(OC)C1=O` [2,6-DMBQ, 2,6-dimethoxy-1,4-benzoquinone]: the Km in experiment [1] was determined as 214 µM.

For `CCn1c(=NN=c2sc3cc(S(=O)(=O)O)ccc3n2CC)sc2cc(S(=O)(=O)O)ccc21` [ABTS], the Km in experiment [2] was determined as 142 µM.

The record behind these values is publication PMC11205865, “Unlocking the distinctive enzymatic functions of the early plant biomass deconstructive genes in a brown rot fungus by cell-free protein expression” (Applied and Environmental Microbiology, 2024).
